Common to all, as to type: cell-based, human
One experiment has as its system NF-κB. Briefly: EMSA of constitutive nuclear NF-κB DNA binding, MDA-MB-453. To be noted: MDA-MB-453 breast carcinoma; catalase 3,000 U/ml for 24 hours. The procedure:
The effect of antioxidants on nuclear activation of NF-κB was studied by incubating near confluent (70%) cell cultures with antioxidant treatments for 1-48 hours. Nuclear protein was harvested, and EMSAs were performed using DNA consensus binding sequences, or nuclear translocation of the p65 component of NF-κB was studied by immunoperoxidase staining, as outlined below.
Electrophoretic Mobility Shift Assays (EMSAs). Nuclear protein was isolated and DNA binding reactions were performed as previously described in detail, Kennedy et al., Am. J. Respir. Cell Mol. Biol. 19:366-378 (1998). Monolayers were washed twice in cold DPBS and equilibrated 10 min on ice with 0.7 ml cold cytoplasmic extraction buffer, CEB (10 mM Tris, pH 7.9, 60 mM KCl, 1 mM EDTA, 1 mM DTT) with protease inhibitors, PI (1 mM Pefabloc, 50 μg/ml antipain, 1 μg/ml leupeptin, 1 μg/ml pepstatin, 40 μg/ml bestatin, 3 μg/ml E-64 and 100 μg/ml chymostatin). […] DNA-protein binding reactions were performed with 2 μg of nuclear protein (as determined by the Pierce method) and 30-80,000 cpm of ^32P-end-labelled double-stranded DNA probe in 10 mM Tris-HCl, pH 7.5, 50 mM NaCl, 0.5 mM EDTA, 0.5 mM DTT, 1 mM MgCl2, 50 μg/ml poly dI-dC, and 4% glycerol. […] Gels were dried and analyzed by autoradiography at −80° C. using an image intensifier screen. […]
On the technique in general: In EMSA bound probe runs differently from free probe, usually more slowly.

Another experiment deals with Melanoma M1585 cells. Briefly: MTT proliferation assay, M1585 melanoma. To be noted: Catalase 3000 U/ml; 10% FBS; 48 hours; mean±SE vs control. The procedure: Measurement of Proliferation in Cell Cultures. […] This assay empirically distinguishes between dead and living cells.
(§1) Cell Culture Treatments. The effect of antioxidant treatments on proliferation of malignant cell lines was studied in cultures stimulated with 10% FBS. Cell numbers were quantitated by the MTT assay 24-72 hours later. In some experiments, antioxidants were added immediately after cells were plated. In other experiments, cells were plated and allowed to grow for 24 hours before fresh media with antioxidants was added, and cell numbers were studied by the MTT assay 48 hours later.
Cells stimulated with 10% FBS were plated at a density of 50,000 cells per well. DMSO and antioxidants were added to cell wells at the indicated concentrations. […] Each value represents a mean of at least 4 experiments.
A general note: Formazan colour is commonly taken as a measure of viable cells.

Another experiment has as its system M1619 melanoma cells. Briefly: MTT proliferation assay, M1619 melanoma. The procedure: Measurement of Proliferation in Cell Cultures. Proliferation of cultured cells was quantitated using a previously reported calorimetric method based upon metabolic reduction of the soluble yellow tetrazolium dye 3-[4,5-dimethylthiazol]-2yl-2,5-diphenyl tetrazolium bromide (MTT) to its insoluble purple formazan by the action of mitochondrial succinyl dehydrogenase. […] This assay empirically distinguishes between dead and living cells. For proliferation studies, cells were seeded into 24-well uncoated plastic plates (Costar) at 15,000-50,000 cells per well and cultured with respective media and mitogens. After 24-96 hours, medium was removed, cells were washed twice with 1 ml of sterile Dulbecco's modified phosphate buffered saline without Ca^2+ or Mg^2+ (DPBS), the medium was replaced with 1 ml/well fresh medium containing 100 μg/ml MTT, and plates were incubated an additional hour. MTT-containing medium was removed, 0.5 ml dimethylsulfoxide (DMSO) was added to each well, and the absorbance of the solubilized purple formazan dye was measured at 540 nm. A total of 4-6 wells was studied at each treatment condition. Preliminary studies were performed with 50-200 μg/ml MTT incubated for 15 min to 3 hours to determine the optimum concentration and incubation time at which the rate of conversion was linear and proportional to the number of cells present.
as §1
A. M1619 melanoma cells stimulated with 10% fetal bovine serum (FBS) were plated at a density of 50,000 cells per well and antioxidants were added to wells at the indicated concentrations (mM or U/ml). After 48 hours, proliferation was quantitated by assessing the cell number-dependent reduction of the soluble yellow tetrazolium dye 3-[4,5-dimethylthiazol]-2yl-2,5-diphenyl tetrazolium bromide (MTT) to its insoluble formazan, measured as the absorbance at 540 nm (A540). The antioxidants tested included no antioxidant (control, i.e., FBS alone), 1000 U/ml SOD, 20 mM NAC, 500 U/ml, 1000 U/ml, and 3000 U/ml of catalase, and boiled […] catalase.
B. In a separate experiment, 2 μl/well of DMSO (served as control), 5 μM, 10 μM, and 25 μM Ebselen were tested on M1619 melanoma cells as described above, except that the cells were cultured for 72 hours before proliferation was measured.
C. 3000 U/ml Catalase, 2 μl/well DMSO, 25 μM Ebselen, and 50 μM Ebselen were tested as described above except that the compounds were added 24 hours after M1619 cells were plated. After the addition of antioxidants, the cells were incubated for an additional 48 hours and cell proliferation was quantitated. […]

For Catalase, in the experiment with NF-κB, the “constitutive nuclear DNA binding activity for NF-κB” value is reported as “suppressed”. Besides, the “Percent Growth Inhibition” value in the experiment on Melanoma M1585 cells came to 80 ± 1. Also, the “Proliferation of M1619 melanoma cells (MTT, A540)” value in the experiment with M1619 melanoma cells (10% FBS, agents added at plating, 48 hours (ebselen 72 hours)) is “reduced proliferation”. The “Proliferation of M1619 melanoma cells, agents added 24 hours after plating” value in the experiment on M1619 melanoma cells (catalase 3000 U/ml, Ebselen 25 and 50 μM, further 48 hours) is listed as “antiproliferative”.

The record behind these values is patent US20070142462A1, “Method of Treating Cancer” (The University of Utah, priority 2000, published 2007).
